Measured values: patent US20110053770A1, “SUBSTITUTED AMINOTHIAZOLES AND THEIR USE AS FUNGICIDES” (BAYER CROPSCIENCE AG, priority 2009, published 2011)
Read-outs that look alike come from different tables or passages of the source. Marks after values point to notes of the source that are not given here.

Assay: logP by HPLC on reversed-phase columns (C 18), EEC directive 79/831 Annex V.A8
Assay type: physicochemical
Conditions: for chromatographic logP: reversed-phase HPLC column (C 18)
Protocol: Calibration was carried out using unbranched alkan-2-ones (having from 3 to 16 carbon atoms) with known logP values (the logP values were determined by the retention times using linear interpolation between two successive alkanones).

[1] = LC-MS, acidic range, pH 2.7, 0.1% aqueous formic acid and acetonitrile
[2] = LC-MS, neutral range, pH 7.8, 0.001 molar aqueous ammonium bicarbonate and acetonitrile
[3] = acidic range, pH 2.3, 0.1% aqueous phosphoric acid and acetonitrile

| SMILES | log P (**) [1] | log P (***) [2] | log P (*) [3] | chromatographic logP (LC-MS, acidic range, pH 2.7, 0.1% aqueous formic acid and acetonitrile, read-out: log P (**)) | chromatographic logP (LC-MS, neutral range, pH 7.8, 0.001 molar aqueous ammonium bicarbonate and acetonitrile, read-out: log P (***)) | chromatographic logP (acidic range, pH 2.3, 0.1% aqueous phosphoric acid and acetonitrile, read-out: log P (*)) |
| --- | --- | --- | --- | --- | --- | --- |
| CC(=O)N1CCCCC1=Nc1nc(-c2ccccc2Oc2ccc(F)cc2F)cs1 [compound 16, 1-[(2E/Z)-2-({4-[2-(2,4-difluorophenoxy)phenyl]-1,3-thiazol-2-yl}imino)piperidin-1-yl]ethanone] | 4.36 | 4.32 | 4.36 |  |  |  |
| CC(=O)N1CCCCC1=Nc1nc(-c2ccccc2Oc2ccccc2)cs1 [compound 17, 1-[(2E/Z)-2-{[4-(2-phenoxyphenyl)-1,3-thiazol-2-yl]imino}piperidin-1-yl]ethanone] | 4.41 | 4.39 | 4.41 |  |  |  |
| Fc1ccc(-c2csc(N=C3CCCCN3)n2)cc1F [compound 18, 4-(3,4-difluorophenyl)-N-[(2E/Z)-piperidin-2-ylidene]-1,3-thiazole-2-amine] | 1.64 | 3.12 | 1.64 |  |  |  |
| Fc1ccc(F)c(-c2csc(N=C3CCCCN3)n2)c1 [compound 19, 4-(2,5-difluorophenyl)-N-[(2E/Z)-piperidin-2-ylidene]-1,3-thiazole-2-amine] | 1.58 | 3.16 | 1.58 |  |  |  |
| Clc1ccccc1-c1csc(N=C2CCCCN2)n1 [compound 20, 4-(2-chlorophenyl)-N-[(2E/Z)-piperidin-2-ylidene]-1,3-thiazole-2-amine] | 1.63 | 3.19 | 1.63 |  |  |  |
| FC(F)(F)c1ccccc1-c1csc(N=C2CCCCN2)n1 [compound 21, N-[(2E/Z)-piperidin-2-ylidene]-4-[2-(trifluoromethyl)phenyl]-1,3-thiazole-2-amine] | 1.76 | 3.25 | 1.76 |  |  |  |
| C=CCOc1ccccc1-c1csc(N=C2CCCCN2)n1 [compound 22, N-[(2E/Z)-piperidin-2-ylidene]-4-[2-(prop-2-en-1-yloxy)phenyl]-1,3-thiazole-2-amine] | 1.83 | 3.45 | 1.83 |  |  |  |
| CCOc1ccccc1-c1csc(N=C2CCCCN2)n1 [compound 23, 4-(2-ethoxyphenyl)-N-[(2E/Z)-piperidin-2-ylidene]-1,3-thiazole-2-amine] | 1.77 | 3.35 | 1.77 |  |  |  |
| Clc1cccc(-c2csc(N=C3CCCCN3)n2)c1Cl [compound 24, 4-(2,3-dichlorophenyl)-N-[(2E/Z)-piperidin-2-ylidene]-1,3-thiazole-2-amine] | 1.81 | 3.72 | 1.81 |  |  |  |
| Fc1cccc(-c2csc(N=C3CCCCN3)n2)c1F [compound 25, 4-(2,3-difluorophenyl)-N-[(2E/Z)-piperidin-2-ylidene]-1,3-thiazole-2-amine] | 1.58 | 3.21 | 1.58 |  |  |  |
| Fc1c(-c2csc(N=C3CCCCN3)n2)cccc1C(F)(F)F [compound 26, 4-[2-fluoro-3-(trifluoromethyl)phenyl]-N-[(2E/Z)-piperidin-2-ylidene]-1,3-thiazole-2-amine] | 1.84 | 3.78 | 1.84 |  |  |  |
| COc1ccc(-c2csc(N=C3CCCCN3)n2)cc1OC [compound 27, 4-(3,4-dimethoxyphenyl)-N-[(2E/Z)-piperidin-2-ylidene]-1,3-thiazole-2-amine] | 1.35 | 2.36 | 1.35 |  |  |  |
| c1cc2c(cc1-c1csc(N=C3CCCCN3)n1)OCO2 [compound 28, 4-(1,3-benzodioxol-5-yl)-N-[(2E/Z)-piperidin-2-ylidene]-1,3-thiazole-2-amine] | 1.41 | 2.65 | 1.41 |  |  |  |
| Fc1cc(F)cc(-c2csc(N=C3CCCCN3)n2)c1 [compound 29, 4-(3,5-difluorophenyl)-N-[(2E/Z)-piperidin-2-ylidene]-1,3-thiazole-2-amine] | 1.57 | 3.22 | 1.57 |  |  |  |
| Fc1ccc(-c2csc(N=C3CCCCN3)n2)cc1Cl [compound 30, 4-(3-chloro-4-fluorophenyl)-N-[(2E/Z)-piperidin-2-ylidene]-1,3-thiazole-2-amine] | 1.76 | 3.45 | 1.76 |  |  |  |
| Cc1sc(N=C2CCCCN2)nc1-c1ccc(Cl)cc1 [compound 31, 4-(4-chlorophenyl)-5-methyl-N-[(2E/Z)-piperidin-2-ylidene]-1,3-thiazole-2-amine] | 1.84 | 3.72 | 1.84 |  |  |  |
| CC(C)(C)c1ccc(-c2csc(N=C3CCCCN3)n2)cc1 [compound 32, 4-(4-tert-butylphenyl)-N-[(2E/Z)-piperidin-2-ylidene]-1,3-thiazole-2-amine] | 2.2 | 4.35 | 2.2 |  |  |  |

| SMILES | log P (**) [1] | log P (***) [2] | log P (*) [3] | chromatographic logP (LC-MS, acidic range, pH 2.7, 0.1% aqueous formic acid and acetonitrile, read-out: log P (**)) | chromatographic logP (LC-MS, neutral range, pH 7.8, 0.001 molar aqueous ammonium bicarbonate and acetonitrile, read-out: log P (***)) | chromatographic logP (acidic range, pH 2.3, 0.1% aqueous phosphoric acid and acetonitrile, read-out: log P (*)) |
| --- | --- | --- | --- | --- | --- | --- |
| CCOc1ccccc1-c1csc(N=C2CCCCN2C(C)=O)n1 [compound 33, 1-[(2E/Z)-2-{[4-(2-ethoxyphenyl)-1,3-thiazol-2-yl]imino}piperidin-1-yl]ethanone] | 2.71 | 5.03 | 2.71 |  |  |  |
| CC(=O)N1CCCCC1=Nc1nc(-c2ccc(Cl)cc2)cs1 [compound 34, 1-[(2E/Z)-2-{[4-(4-chlorophenyl)-1,3-thiazol-2-yl]imino}piperidin-1-yl]ethanone] | 3.78**; 3.78***; 3.78* | 3.78**; 3.78***; 3.78* | 3.78**; 3.78***; 3.78* |  |  |  |
| CC(=O)N1CCCCC1=Nc1nc(-c2ccc(Cl)cc2Cl)cs1 [compound 35, 1-[(2E/Z)-2-{[4-(2,4-dichlorophenyl)-1,3-thiazol-2-yl]imino}piperidin-1-yl]ethanone] |  |  |  | 4.33 | 4.33 | 4.33 |
| CC(=O)N1CCCCC1=Nc1nc(-c2cccc(Cl)c2Cl)cs1 [compound 36, 1-[(2E/Z)-2-{[4-(2,3-dichlorophenyl)-1,3-thiazol-2-yl]imino}piperidin-1-yl]ethanone] | 4.03 | 4.02 | 4.03 |  |  |  |
| CC(=O)N1CCCCC1=Nc1nc(-c2cccc(F)c2F)cs1 [compound 37, 1-[(2E/Z)-2-{[4-(2,3-difluorophenyl)-1,3-thiazol-2-yl]imino}piperidin-1-yl]ethanone] | 3.63**; 3.63***; 3.63* | 3.63**; 3.63***; 3.63* | 3.63**; 3.63***; 3.63* |  |  |  |
| CC(=O)N1CCCCC1=Nc1nc(-c2cccc(C(F)(F)F)c2F)cs1 [compound 38, 1-[(2E/Z)-2-({4-[2-fluoro-3-(trifluoromethyl)phenyl]-1,3-thiazol-2-yl}imino)piperidin-1-yl]ethanone] | 4.25 | 4.23 | 4.25 |  |  |  |
| CC(=O)N1CCCCC1=Nc1nc(-c2ccc3c(c2)OCO3)cs1 [compound 39, 1-[(2E/Z)-2-{[4-(1,3-benzodioxol-5-yl)-1,3-thiazol-2-yl]imino}piperidin-1-yl]ethanone] | 2.96 | 2.95 | 2.96 |  |  |  |
| CC(=O)N1CCCCC1=Nc1nc(-c2cc(F)cc(F)c2)cs1 [compound 40, 1-[(2E/Z)-2-{[4-(3,5-difluoro-phenyl)-1,3-thiazol-2-yl]imino}piperidin-1-yl]ethanone] | 3.63 | 3.62 | 3.63 |  |  |  |
| CC(=O)N1CCCCC1=Nc1nc(-c2ccc(F)c(Cl)c2)cs1 [compound 41, 1-[(2E/Z)-2-{[4-(3-chloro-4-fluorophenyl)-1,3-thiazol-2-yl]imino}piperidin-1-yl]ethanone] | 3.88**; 3.88***; 3.88* | 3.88**; 3.88***; 3.88* | 3.88**; 3.88***; 3.88* |  |  |  |
| CC(=O)N1CCCCC1=Nc1nc(-c2ccc(Cl)cc2)c(C)s1 [compound 42, 1-[(2E/Z)-2-{[4-(4-chlorophenyl)-5-methyl-1,3-thiazol-2-yl]imino}piperidin-1-yl]ethanone] | 3.92 | 3.96 | 3.92 |  |  |  |
| CC(=O)N1CCCCC1=Nc1nc(-c2cccc(F)c2F)c(C)s1 [compound 43, 1-[(2E/Z)-2-{[4-(2,3-difluorophenyl)-5-methyl-1,3-thiazol-2-yl]imino}piperidin-1-yl]ethanone] | 3.37**; 3.37***; 3.37* | 3.37**; 3.37***; 3.37* | 3.37**; 3.37***; 3.37* |  |  |  |
| Cc1sc(N=C2CCCCN2)nc1-c1cccc(F)c1F [compound 44, 4-(2,3-difluorophenyl)-5-methyl-N-[(2E/Z)-piperidin-2-ylidene]-1,3-thiazole-2-amine] | 1.7 | 3.2 | 1.7 |  |  |  |
| FC(F)(F)c1cccc(-c2csc(N=C3CCCCN3)n2)c1 [compound 45, N-[(2E/Z)-piperidin-2-ylidene]-4-[3-(trifluoromethyl)phenyl]-1,3-thiazole-2-amine] | 1.97 | 3.55 |  |  |  |  |
| Brc1cccc(-c2csc(N=C3CCCCN3)n2)c1 [compound 46, 4-(3-bromophenyl)-N-[(2E/Z)-piperidin-2-ylidene]-1,3-thiazole-2-amine] | 1.8** |  |  |  |  |  |
| CC(C)(C)Cc1cccc(-c2csc(N=C3CCCCN3)n2)c1 [compound 47, 4-[3-(2,2-dimethylpropyl)phenyl]-N-[(2E/Z)-piperidin-2-ylidene]-1,3-thiazole-2-amine] | 2.51 | 4.86 |  |  |  |  |
| Brc1ccccc1-c1csc(N=C2CCCCN2)n1 [compound 48, 4-(2-bromophenyl)-N-[(2E/Z)-piperidin-2-ylidene]-1,3-thiazole-2-amine] | 1.58 | 3.25 |  |  |  |  |
